Four compounds from patent publication US20230357269A1 (LES LABORATOIRES SERVIER, priority 2020, published 2023) can be followed below.

The IC50 is the concentration needed to halve the response being measured.

For data set [1] the following is noted: other bond.
For data set [2], the target named is human recombinant LRRK2 protein (Homo sapiens (Human), UniProt Q5S007). As to the kind of experiment: LRRK2 Kinase Activity Assay (ADP-Glo). It counts as biochemical. Particulars: LRRK2 wt; LRRKtide peptide and ATP substrates; 1h-incubation at 37° C. In outline: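 Recombinant human LRRK2 acted on LRRKtide peptide and ATP for 1 h at 37 °C. ADP formed was detected by ADP-Glo luminescence (ATP depletion, then ADP-to-ATP conversion and luciferase). IC50s came from curve fits over 10 concentrations (N=2).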
For orientation: In ADP-Glo the light output rises with the ADP produced.

Like-named read-outs stand apart in the source and are kept apart here.

Chain of human recombinant LRRK2 protein (Q5S007 whole entry): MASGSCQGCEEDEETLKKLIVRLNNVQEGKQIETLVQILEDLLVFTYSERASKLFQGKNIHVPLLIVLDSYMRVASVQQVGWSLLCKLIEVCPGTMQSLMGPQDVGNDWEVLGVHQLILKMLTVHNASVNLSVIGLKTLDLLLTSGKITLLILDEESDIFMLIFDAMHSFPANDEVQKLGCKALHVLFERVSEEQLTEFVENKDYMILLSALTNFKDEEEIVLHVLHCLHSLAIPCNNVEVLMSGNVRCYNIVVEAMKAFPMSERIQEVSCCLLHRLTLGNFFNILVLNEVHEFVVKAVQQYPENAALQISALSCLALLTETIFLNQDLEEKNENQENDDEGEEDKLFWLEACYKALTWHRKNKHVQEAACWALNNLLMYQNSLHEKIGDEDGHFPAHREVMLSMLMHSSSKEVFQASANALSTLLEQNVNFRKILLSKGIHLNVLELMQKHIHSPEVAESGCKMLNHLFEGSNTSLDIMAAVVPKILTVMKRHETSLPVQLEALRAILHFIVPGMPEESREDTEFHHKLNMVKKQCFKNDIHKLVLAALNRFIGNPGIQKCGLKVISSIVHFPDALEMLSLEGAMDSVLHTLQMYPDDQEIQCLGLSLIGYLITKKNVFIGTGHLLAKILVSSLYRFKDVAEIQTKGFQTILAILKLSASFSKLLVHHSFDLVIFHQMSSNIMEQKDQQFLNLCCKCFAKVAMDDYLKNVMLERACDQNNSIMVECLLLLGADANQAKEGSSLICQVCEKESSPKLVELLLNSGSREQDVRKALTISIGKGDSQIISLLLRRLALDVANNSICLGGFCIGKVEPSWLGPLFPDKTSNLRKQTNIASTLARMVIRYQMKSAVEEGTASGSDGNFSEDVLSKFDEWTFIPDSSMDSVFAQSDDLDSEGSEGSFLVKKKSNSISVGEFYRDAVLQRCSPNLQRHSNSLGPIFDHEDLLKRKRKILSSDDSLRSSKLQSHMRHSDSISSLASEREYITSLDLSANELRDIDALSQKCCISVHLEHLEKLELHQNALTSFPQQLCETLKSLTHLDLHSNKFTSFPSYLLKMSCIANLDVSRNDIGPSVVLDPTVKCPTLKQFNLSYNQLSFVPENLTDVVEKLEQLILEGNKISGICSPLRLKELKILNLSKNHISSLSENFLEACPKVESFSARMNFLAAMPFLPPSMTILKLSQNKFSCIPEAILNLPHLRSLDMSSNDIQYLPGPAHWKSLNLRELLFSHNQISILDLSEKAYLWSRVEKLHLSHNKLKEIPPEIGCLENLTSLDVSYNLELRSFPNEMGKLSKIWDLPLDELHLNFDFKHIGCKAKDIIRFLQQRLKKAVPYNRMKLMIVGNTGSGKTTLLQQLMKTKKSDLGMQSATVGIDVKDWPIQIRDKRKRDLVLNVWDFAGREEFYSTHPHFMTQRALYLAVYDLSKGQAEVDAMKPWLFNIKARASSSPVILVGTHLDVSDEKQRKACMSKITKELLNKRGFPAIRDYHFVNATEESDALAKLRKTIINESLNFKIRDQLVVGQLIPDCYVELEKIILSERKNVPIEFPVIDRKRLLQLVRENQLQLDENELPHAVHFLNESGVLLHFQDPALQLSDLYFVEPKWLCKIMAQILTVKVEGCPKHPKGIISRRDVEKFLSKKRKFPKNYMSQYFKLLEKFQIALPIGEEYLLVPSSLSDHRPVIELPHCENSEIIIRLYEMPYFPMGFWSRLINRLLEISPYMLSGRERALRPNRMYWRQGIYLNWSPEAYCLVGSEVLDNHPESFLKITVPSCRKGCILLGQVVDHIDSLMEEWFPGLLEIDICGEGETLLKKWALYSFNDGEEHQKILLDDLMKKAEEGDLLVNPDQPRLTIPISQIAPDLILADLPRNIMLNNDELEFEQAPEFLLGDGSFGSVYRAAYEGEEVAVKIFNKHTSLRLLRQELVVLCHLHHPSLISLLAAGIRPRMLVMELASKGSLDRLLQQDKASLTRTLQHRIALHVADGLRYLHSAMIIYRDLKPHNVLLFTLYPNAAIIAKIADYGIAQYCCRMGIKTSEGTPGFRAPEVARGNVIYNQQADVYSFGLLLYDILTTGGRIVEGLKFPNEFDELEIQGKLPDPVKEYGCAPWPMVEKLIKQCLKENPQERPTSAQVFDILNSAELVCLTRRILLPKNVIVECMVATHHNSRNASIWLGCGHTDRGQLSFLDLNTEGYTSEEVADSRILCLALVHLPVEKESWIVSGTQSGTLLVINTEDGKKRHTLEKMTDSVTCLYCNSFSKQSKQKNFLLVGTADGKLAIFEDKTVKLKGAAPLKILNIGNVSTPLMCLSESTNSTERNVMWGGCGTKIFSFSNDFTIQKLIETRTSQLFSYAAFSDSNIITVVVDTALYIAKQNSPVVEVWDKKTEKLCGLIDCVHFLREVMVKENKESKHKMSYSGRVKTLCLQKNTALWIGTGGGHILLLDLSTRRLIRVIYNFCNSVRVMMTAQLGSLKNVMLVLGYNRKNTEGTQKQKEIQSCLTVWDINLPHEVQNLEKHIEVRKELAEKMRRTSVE

Take `O=C1NCCCOc2ccc3c(c2)c(nn3C2CCCCO2)-c2cc(Br)cc(c2)CO1` (stereo not shown): in data set [1] (from O=C(NCCCOc1ccc2c(c1)c(-c1cc(Br)cc(CO)c1)nn2C1CCCCO1)OCc1ccccc1, NaH, toluene, 1.6 mM, 140.0 °C, 42.0 h), the ring closure, yield of all isomers came to 25.7%.

In turn, `COCC1CCOc2ccc3c(c2)c(nn3C2CCCCO2)-c2cccc(c2)COC(=O)N1` (stereo not shown) gave a ring closure, yield of all isomers in data set [1] (from COCC(CCOc1ccc2c(c1)c(-c1cccc(CO)c1)nn2C1CCCCO1)NC(=O)OCc1ccccc1, cesium carbonate, acetonitrile, 4.47 mM, 90.0 °C, 6.0 h) of 62.3%.

With `C[C@@H]1CCNC(=O)OCc2cccc(c2)-c2n[nH]c3cc(F)c(cc23)O1` [Example 132, (13R)-16-fluoro-13-methyl-8,14-dioxa-10,19,20-triazatetracyclo[13.5.2.1^2,6.0^18,21]tricosa-1(20),2,4,6(23),15,17,21-heptaen-9-one], in data set [2], the IC50 is less than 10 nM.

With `O=C1NCCCOc2ccc3[nH]nc(c3c2)-c2ccc(N3CCCC3=O)c(c2)CO1` [Example 75, 5-(2-oxopyrrolidin-1-yl)-8,14-dioxa-10,19,20-triazatetracyclo[13.5.2. 1^2,6.0^18,21]tricosa-1(20),2(23),3,5,15(22),16,18(21)-heptaen-9-one], the IC50 in data set [2] is less than 10 nM.
